The test system of data set [1] is pentagastrin-stimulated acid secretion of the perfused rat stomach. As to the kind of experiment: Secretion-inhibiting action on the perfused rat stomach (pentagastrin-stimulated acid secretion, in vivo). Particulars: anesthetized CD rat, dose 3 μmol/kg i.v. From the text:
Testing of the Secretion-inhibiting Action on the Perfused Rat Stomach
In Table A which follows, the influence of the compounds according to the invention on the pentagastrin-stimulated acid secretion of the perfused rat stomach after intravenous administration in vivo is shown.
The abdomen of anesthetized rats (CD rat, female, 200-250 g; 1.5 g/kg i.m. urethane) was opened after tracheotomy by a median upper abdominal incision and a PVC catheter was fixed transorally in the esophagus and another via the pylorus such that the ends of the tube just projected into the gastric lumen. The catheter leading from the pylorus led outwards into the right abdominal wall through a side opening.
After thorough rinsing (about 50-100 ml), warm (37° C.) physiological NaCl solution was continuously passed through the stomach (0.5 ml/min, pH 6.8-6.9; Braun-Unita 1). The pH (pH meter 632, glass electrode EA 147; φ=5 mm, Metrohm) and, by titration with a freshly prepared 0.01 N NaOH solution to pH 7 (Dosimat 665 Metrohm), the secreted HCl were determined in the effluent in each case collected at an interval of 15 minutes.
The gastric secretion was stimulated by continuous infusion of […] (=1.65 ml/h) of i.v. pentagastrin (left femoral vein) about 30 min after the end of the operation (i.e. after determination of 2 preliminary fractions). […]

The melting point is the temperature, or range, at which the solid turns liquid. Regarding `Cc1nc2c3c(ccn2c1C)[C@H](OCC[S+](C)[O-])[C@H](O)[C@@H](c1ccccc1)N3` (stereo partly drawn) [Example 4, (7S,8R,9R)-2,3-dimethyl-8-hydroxy-7-(2-methylsulphinylethoxy)-9-phenyl-7,8,9,10-tetrahydroimidazo[1,2-h][1,7]naphthyridine], the melting point was 85 to 87 °C.

On to `Cc1nc2c3c(ccn2c1C)[C@@H](OCC[S+](C)[O-])[C@H](O)[C@@H](c1ccccc1)N3` (stereo partly drawn) [Example 3, (7R,8R,9R)-2,3-dimethyl-8-hydroxy-7-(2-methylsulphinylethoxy)-9phenyl-7,8,9,10-tetrahydroimidazo[1,2-h][1,7]naphthyridine], for which the melting point fell in the range of 105 to 106 °C. Still for that read-out and setting: for `CCS[C@H]1c2ccn3c(C)c(C)nc3c2N[C@H](c2ccccc2)[C@H]1O` [Example 6, (7S,8R,9R)-2,3-dimethyl-8-hydroxy-7-(ethylthio)-9-phenyl-7,8,9,10-tetrahydro-imidazo[1,2-h][1,7]naphthyridine] the value was 235 to 236 °C.

In turn, `CCS[C@@H]1c2ccn3c(C)c(C)nc3c2N[C@H](c2ccccc2)[C@H]1O` [Example 5, (7R,8R,9R)-2,3dimethyl-8-hydroxy-7-(ethylthio)-9-phenyl-7,8,9,10-tetrahydro-imidazo[1,2-h][1,7]naphthyridine] registered a melting point of 220 to 223 °C. The “Inhibition of acid secretion” value in data set [1] is listed as 100%. The compound `CSCCO[C@H]1c2ccn3c(C)c(C)nc3c2N[C@H](c2ccccc2)[C@H]1O` [Example 2, (7S,8R,9R)-2,3-dimethyl-8-hydroxy-7-(2-methylthioethyloxy)9-phenyl-7,8,9,10-tetrahydroimidazo[1,2-h][1,7]naphthyridine] had a melting point of 109 to 110 °C.

Turning to `CSCCO[C@@H]1c2ccn3c(C)c(C)nc3c2N[C@H](c2ccccc2)[C@H]1O` [Example 1, (7R,8R,9R)-2,3-dimethyl-8-hydroxy-7-(2-methylthioethyloxy)-9-phenyl-7,8,9,10-tetrahydroimidazo[1,2-h][1,7]naphthyridine], the melting point lay within 118 to 119 °C. In addition, in data set [1], the “Inhibition of acid secretion” value was 100%.

For the origin of these results see patent US6384048B1, “Imidazonaphthyridines” (Byk Gulden Lomberg Chemische Fabrik GmbH, priority 1998, dated 2002).
